According to ChEMBL document CHEMBL4765380, “Synthesis, structure and anticancer activity of new geldanamycin amine analogs containing C(17)- or C(20)- flexible and rigid arms as well as closed or open ansa-bridges” (Eur J Med Chem, 2020):

Columns and labels:
SK-BR-3 = assay: Antiproliferative activity against human SK-BR-3 cells assessed as reduction in cell growth incubated for 72 hrs by SRB assay; assay type: functional, cell-based; details: SK-BR-3, 72 h
SK-OV-3 = assay: Antiproliferative activity against human SK-OV-3 cells assessed as reduction in cell growth incubated for 72 hrs by SRB assay; assay type: functional, cell-based; details: SK-OV-3, 72 h
PC-3 = assay: Antiproliferative activity against human PC-3 cells assessed as reduction in cell growth incubated for 72 hrs by SRB assay; assay type: functional, cell-based; details: PC-3, 72 h
U-87 MG = assay: Antiproliferative activity against human U-87 MG cells assessed as reduction in cell growth incubated for 72 hrs by SRB assay; assay type: functional, cell-based, U-87MG ATCC
A549 = assay: Antiproliferative activity against human A549 cells assessed as reduction in cell growth incubated for 72 hrs by SRB assay; assay type: functional, cell-based; details: A549, 72 h
[1] = Cytotoxicity against human HDF cells assessed as reduction in cell growth incubated for 72 hrs by SRB assay; assay type: cell-based; details: HDFa
[2] = Selectivity index, ratio of IC50 for cytotoxicity against human HDF cells to IC50 for cytotoxicity against human SK-BR-3 cells; assay type: toxicity, cell-based; details: HDF cells versus SK-BR-3 cells, read-out: Ratio IC50
[3] = Selectivity index, ratio of IC50 for cytotoxicity against human HDF cells to IC50 for cytotoxicity against human SK-OV-3 cells
[4] = Selectivity index, ratio of IC50 for cytotoxicity against human HDF cells to IC50 for cytotoxicity against human PC-3 cells; assay type: toxicity, cell-based; details: HDF cells versus PC-3 cells, read-out: Ratio IC50
[5] = Selectivity index, ratio of IC50 for cytotoxicity against human HDF cells to IC50 for cytotoxicity against human U-87 MG cells; assay type: toxicity, cell-based; details: HDF cells versus U-87 MG cells, read-out: Ratio IC50
[6] = Selectivity index, ratio of IC50 for cytotoxicity against human HDF cells to IC50 for cytotoxicity against human A549 cells; assay type: toxicity, cell-based; details: HDF cells versus A549 cells, read-out: Ratio IC50

| IC50 (SK-BR-3) | IC50 (SK-OV-3) | IC50 (PC-3) | IC50 (U-87 MG) | IC50 (A549) | SMILES | IC50 [1] | selectivity ratio [2] | Ratio IC50 [3] | selectivity ratio [4] | selectivity ratio [5] | selectivity ratio [6] |
| --- | --- | --- | --- | --- | --- | --- | --- | --- | --- | --- | --- |
| 1130 nM | 1110 nM | 1370 nM | 1250 nM | 1050 nM | CO[C@H]1/C=C\C=C(/C)C(=O)NC2=CC(=O)C(NCCO)=C(C[C@@H](C)C[C@H](OC)[C@H](O)[C@@H](C)/C=C(\C)[C@@H]1OC(N)=O)C2=O | 3970 nM | 3.51 | 3.58 | 2.9 | 3.18 | 3.78 |
| 4440 nM | 4150 nM | 3610 nM | 4010 nM | 4520 nM | C#CCNC1=C2C[C@@H](C)C[C@H](OC)[C@H](O)[C@@H](C)/C=C(\C)[C@H](OC(N)=O)[C@@H](OC)/C=C\C=C(/C)C(=O)NC(=CC1=O)C2=O | 7880 nM | 1.77 | 1.9 | 2.18 | 1.97 | 1.74 |
| 2060 nM | 2000 nM | 1780 nM | 2740 nM | 2020 nM | CO[C@H]1/C=C\C=C(/C)C(=O)NC2=CC(=O)C(NCc3ccc(CS(N)(=O)=O)cc3)=C(C[C@@H](C)C[C@H](OC)[C@H](O)[C@@H](C)/C=C(\C)[C@@H]1OC(N)=O)C2=O | 4960 nM | 2.41 | 2.48 | 2.9 | 1.81 | – |
| 2480 nM | 2050 nM | 2750 nM | 2390 nM | 2970 nM | CO[C@H]1/C=C\C=C(/C)C(=O)NC2=CC(=O)C(NCc3cccc(CS(=O)(=O)N(C(C)C)C(C)C)c3)=C(C[C@@H](C)C[C@H](OC)[C@H](O)[C@@H](C)/C=C(\C)[C@@H]1OC(N)=O)C2=O | 5370 nM | 2.17 | 2.62 | 1.95 | 2.25 | 1.81 |
| 1770 nM | 1850 nM | 1010 nM | 1100 nM | 1680 nM | CO[C@H]1/C=C\C=C(/C)C(=O)NC2=CC(=O)C(NC3CCN(Cc4ccccc4)CC3)=C(C[C@@H](C)C[C@H](OC)[C@H](O)[C@@H](C)/C=C(\C)[C@@H]1OC(N)=O)C2=O | 4880 nM | 2.76 | 2.64 | 4.83 | 4.14 | 2.9 |
| 1840 nM | 1350 nM | 1520 nM | 1040 nM | 1130 nM | CO[C@H]1/C=C\C=C(/C)C(=O)NC2=CC(=O)C(NCc3ccccc3F)=C(C[C@@H](C)C[C@H](OC)[C@H](O)[C@@H](C)/C=C(\C)[C@@H]1OC(N)=O)C2=O | 2690 nM | 1.46 | 1.99 | 1.77 | 2.59 | 2.38 |
| 3390 nM | 3030 nM | 3210 nM | 3180 nM | 3730 nM | CO[C@H]1/C=C\C=C(/C)C(=O)NC2=CC(=O)C(NCc3cccc(N4CCOC4=O)c3)=C(C[C@@H](C)C[C@H](OC)[C@H](O)[C@@H](C)/C=C(\C)[C@@H]1OC(N)=O)C2=O | 11300 nM | 3.13 | 3.72 | 3.51 | 3.55 | 3.02 |

The remaining lines, values behind:

| SMILES | IC50 (SK-BR-3) | IC50 (SK-OV-3) | IC50 (PC-3) | IC50 (U-87 MG) | IC50 (A549) | IC50 [1] | selectivity ratio [2] | Ratio IC50 [3] | selectivity ratio [4] | selectivity ratio [5] | selectivity ratio [6] |
| --- | --- | --- | --- | --- | --- | --- | --- | --- | --- | --- | --- |
| CO[C@H]1/C=C\C=C(/C)C(=O)NC2=CC(=O)C(NCCCN3CCCC3)=C(C[C@@H](C)C[C@H](OC)[C@H](O)[C@@H](C)/C=C(\C)[C@@H]1OC(N)=O)C2=O | 2060 nM | 2820 nM | 2730 nM | 2040 nM | 2610 nM | 7380 nM | 3.58 | 2.62 | 2.7 | 3.62 | 2.83 |
| CO[C@H]1/C=C\C=C(/C)C(=O)NC2=CC(=O)C(NCC3COCCOCCOCCOCCO3)=C(C[C@@H](C)C[C@H](OC)[C@H](O)[C@@H](C)/C=C(\C)[C@@H]1OC(N)=O)C2=O (stereo partly specified) | – | 2940 nM | 2330 nM | 2990 nM | 2080 nM | 5710 nM | 2.48 | 1.94 | 2.26 | 1.91 | 2.75 |
| CO[C@H]1/C=C\C=C(/C)C(=O)NC2=CC(=O)C(NCCCCCCO)=C(C[C@@H](C)C[C@H](OC)[C@H](O)[C@@H](C)/C=C(\C)[C@@H]1OC(N)=O)C2=O | 2070 nM | 2190 nM | 2240 nM | 2080 nM | 2770 nM | 5990 nM | 2.89 | 2.74 | 2.67 | 2.88 | 2.16 |
| CO[C@H]1/C=C\C=C(/C)C(=O)NC2=CC(=O)C(NCCOCCO)=C(C[C@@H](C)C[C@H](OC)[C@H](O)[C@@H](C)/C=C(\C)[C@@H]1OC(N)=O)C2=O | 2050 nM | 2510 nM | 1960 nM | 2660 nM | 2150 nM | 4990 nM | 2.43 | 1.99 | 2.55 | 1.88 | 2.32 |
| CO[C@H]1/C=C\C=C(/C)C(=O)NC2=CC(=O)C(NNC3=NCCN3)=C(C[C@@H](C)C[C@H](OC)[C@H](O)[C@@H](C)/C=C(\C)[C@@H]1OC(N)=O)C2=O | 2090 nM | 2470 nM | 3110 nM | 2090 nM | 2710 nM | 3920 nM | 1.88 | 1.59 | 1.26 | 1.88 | 1.45 |
| CO[C@H]1/C=C\C=C(/C)C(=O)NC2=CC(=O)C(NC3CCC(O)CC3)=C(C[C@@H](C)C[C@H](OC)[C@H](O)[C@@H](C)/C=C(\C)[C@@H]1OC(N)=O)C2=O (stereo partly specified) | 3830 nM | 3160 nM | 3290 nM | 3710 nM | 3310 nM | 8190 nM | 2.14 | 2.59 | 2.49 | 2.21 | 2.47 |
| CCOC(=O)[C@@H](N)CCCCNC1=C2C[C@@H](C)C[C@H](OC)[C@H](O)[C@@H](C)/C=C(\C)[C@H](OC(N)=O)[C@@H](OC)/C=C\C=C(/C)C(=O)NC(=CC1=O)C2=O | 1370 nM | 1090 nM | 1260 nM | 1050 nM | 1390 nM | 3190 nM | 2.33 | 2.93 | 2.53 | 3.04 | 2.29 |
| CO[C@H]1/C=C\C=C(/C)C(=O)NC2=CC(=O)C(NC3CCN(C(C)=O)CC3)=C(C[C@@H](C)C[C@H](OC)[C@H](O)[C@@H](C)/C=C(\C)[C@@H]1OC(N)=O)C2=O | 1030 nM | 1730 nM | 1660 nM | 1120 nM | 970 nM | 4190 nM | 4.07 | 2.42 | 2.52 | – | 4.32 |
| CO[C@H]1/C=C\C=C(/C)C(=O)NC2=CC(=O)C(NCCCCO)=C(C[C@@H](C)C[C@H](OC)[C@H](O)[C@@H](C)/C=C(\C)[C@@H]1OC(N)=O)C2=O | 1630 nM | 1590 nM | 1660 nM | 1600 nM | 1630 nM | 3510 nM | 2.15 | 2.21 | 2.11 | 2.19 | 2.15 |
| CCCCOCCOCCNC1=C2C[C@@H](C)C[C@H](OC)[C@H](O)[C@@H](C)/C=C(\C)[C@H](OC(N)=O)[C@@H](OC)/C=C\C=C(/C)C(=O)NC(=CC1=O)C2=O | 1020 nM | 1660 nM | 1480 nM | 1220 nM | 1190 nM | 2640 nM | 2.59 | 1.59 | 1.78 | 2.16 | 2.22 |
| CO[C@H]1/C=C\C=C(/C)C(=O)NC2=CC(=O)C(NCCN3CCCC3=O)=C(C[C@@H](C)C[C@H](OC)[C@H](O)[C@@H](C)/C=C(\C)[C@@H]1OC(N)=O)C2=O | 2050 nM | 1540 nM | 1830 nM | 1770 nM | 1600 nM | 2880 nM | 1.4 | 1.87 | 1.57 | 1.63 | 1.8 |
| COc1c(O)cc2cc1C[C@@H](C)C[C@H](OC)[C@H](O)[C@@H](C)/C=C(\C)[C@H](OC(N)=O)[C@@H](OC)CC/C=C(\C)C(=O)N2 [REBLASTATIN] | 600 nM | 125 nM | 18 nM | – | – | – | 53 | 54 | 54 | – | – |
